Assay results: patent publication US10544155B2, “Spirocyclic quinolizine derivatives useful as HIV integrase inhibitors” (MERCK SHARP & DOHME CORP., priority 2015, dated 2020)
Read-outs that look alike come from different tables or passages of the source.

Tested on: HIV-1 (NL4-3 strain)
Test: Assay for inhibition of HIV replication (MT4-gag-GFP reporter cell line, wild type cell assay, Viking)
Format: cell-based
Settings: IP from 4-parameter dose response curve
Experimental: This assay is a kinetic assay that employs a reporter cell line (MT4-gag-GFP) to quantify the number of new cells infected in each round of replication.
MT4-GFP cells (250,000 cells/ml) were bulk-infected with HIV-1 (NL4-3 strain) at low multiplicity of infection (MOI) in RPMI+10% FBS for 24 hours. Cells were then washed once in RPMI+10% FBS and resuspended in RPMI+0% or 10% or 100% normal human serum (NHS). Test compounds were serial-diluted in DMSO on ECHO. The infected MT4-GFP cells were added to a 384-well poly-D-lysine coated black plate with clear bottom in which the diluted test compounds were placed. The cells were seeded at 8,000 cells per well and the final DMSO concentration was 0.4%. The infected cells (Green GFP cells) were quantified at both 24 and 48 hours post incubation using Acumen eX3. Viral reproductive ratio (R0) was determined using the number of infected cells at 48 hours divided by the number of infected cells at 24 hours. Percent viral growth inhibition was calculated by [1−(R−Rtripledrug)/(RDMSO−Rtripledrug)]*100. Compound potency IP or IC50 was determined by a 4-parameter dose response curve analysis.

[1] = MT4-GFP cells infected with HIV-1 NL4-3, 0% normal human serum, read-out: WILD TYPE CELL ASSAY Viking IP (0% NHS)
[2] = MT4-GFP cells infected with HIV-1 NL4-3, 100% normal human serum, read-out: WILD TYPE CELL ASSAY Viking IP (100% NHS)
[3] = Human immunodeficiency virus 1, NL43, MT4-GFP cells infected with HIV-1 NL4-3, 0% normal human serum, read-out: WILD TYPE CELL ASSAY Viking IP (0% NHS)
[4] = Human immunodeficiency virus 1, NL43, MT4-GFP cells infected with HIV-1 NL4-3, 100% normal human serum, read-out: WILD TYPE CELL ASSAY Viking IP (100% NHS)

`CC1(C)C(=O)c2c(O)c(=O)c(C(=O)NCc3ccc(F)cc3F)cn2CC12CCCO2` (single isomer, unassigned) [Compound 1] gave an IC50 [1] of 0.9 nM and an IC50 [2] of 175 nM.
Compound `CC1(C)C(=O)c2c(O)c(=O)c(C(=O)NCc3ccc(F)cc3F)cn2CC12CCCO2` (single isomer, unassigned) [Compound 2] has an IC50 [1] of 1.2 nM and an IC50 [2] of 2300 nM.
Compound `CC1(C)C(=O)c2c(O)c(=O)c(C(=O)NCc3cccc(Cl)c3F)cn2CC12CCCO2` (single isomer, unassigned) [Compound 6] has an IC50 [3] of 1.8 nM and an IC50 [4] of 581 nM.
Work on `CC1(C)C(=O)c2c(O)c(=O)c(C(=O)NCc3ccc(F)c(Cl)c3F)cn2CC12CCCO2` (single isomer, unassigned) [Compound 8] yielded an IC50 [3] of 1.7 nM and an IC50 [4] of 585 nM.
Compound `CC1(C)C(=O)c2c(O)c(=O)c(C(=O)NCc3ccc(F)cc3)cn2CC12CCCO2` (single isomer, unassigned) [Compound 10] has an IC50 [3] of 7 nM and an IC50 [4] of 425 nM.
For `CC1n2cc(C(=O)NCc3ccc(F)cc3F)c(=O)c(O)c2C(=O)C(C)(C)C12CCCO2` (single isomer, unassigned) [Compound 14], the IC50 [3] was 2 nM and the IC50 [4] was 3300 nM.
Work on `CC1COC2(C1)Cn1cc(C(=O)NCc3cccc(Cl)c3F)c(=O)c(O)c1C(=O)C2(C)C` (single isomer, unassigned) [Compound 20] yielded an IC50 [1] of 2 nM and an IC50 [2] of 1160 nM.
`CC1COC2(C1)Cn1cc(C(=O)NCc3cccc(Cl)c3F)c(=O)c(O)c1C(=O)C2(C)C` (single isomer, unassigned) [Compound 21] gave an IC50 [1] of 1.3 nM and an IC50 [2] of 226 nM.
In the case of `CC1COC2(C1)Cn1cc(C(=O)NCc3cccc(Cl)c3F)c(=O)c(O)c1C(=O)C2(C)C` (single isomer, unassigned) [Compound 22], the IC50 [1] is reported as 0.8 nM and the IC50 [2] is reported as 1540 nM.
Work on `CC1COC2(C1)Cn1cc(C(=O)NCc3cccc(Cl)c3F)c(=O)c(O)c1C(=O)C2(C)C` (single isomer, unassigned) [Compound 23] yielded an IC50 [1] of 1 nM and an IC50 [2] of 717 nM.
`CC1COC2(C1)Cn1cc(-c3nnc(Cc4ccc(F)cc4F)s3)c(=O)c(O)c1C(=O)C2(C)C` (single isomer, unassigned) [Compound 24] showed an IC50 [3] of 2.9 nM and an IC50 [2] of 354 nM.
Work on `CC1COC2(C1)Cn1cc(-c3nnc(Cc4ccc(F)cc4F)s3)c(=O)c(O)c1C(=O)C2(C)C` (single isomer, unassigned) [Compound 25] yielded an IC50 [1] of 3.8 nM and an IC50 [2] of 1120 nM.
`CC1(C)C(=O)c2c(O)c(=O)c(C(=O)NCc3ccc(F)cc3F)cn2CC12CCCCO2` (stereo not drawn) [Compound 3] gave an IC50 [1] of 4.2 nM and an IC50 [2] of 2540 nM.
With `C/C=C1\C(=O)c2c(O)c(=O)c(C(=O)NCc3ccc(F)cc3F)cn2CC12CCOCC2` [Compound 5] the IC50 [1] was 3.9 nM and the IC50 [2] was 592 nM.
For `CC1(C)C(=O)c2c(O)c(=O)c(C(=O)NCc3cccc(Cl)c3F)cn2CC12CCCO2` (stereo not drawn) [Compound 7], the IC50 [3] was 1.8 nM and the IC50 [4] was > 8000 nM.
For `CC1(C)C(=O)c2c(O)c(=O)c(C(=O)NCc3ccc(F)c(Cl)c3F)cn2CC12CCCO2` (stereo not drawn) [Compound 9], the IC50 [3] was 1.7 nM and the IC50 [4] was 6670 nM.
`CC1(C)C(=O)c2c(O)c(=O)c(C(=O)NCc3ccc(F)cc3)cn2CC12CCCO2` (stereo not drawn) [Compound 11] gave an IC50 [3] of 7.8 nM and an IC50 [4] of 4920 nM.
With `CC1(C)C(=O)c2c(O)c(=O)c(-c3nnc(Cc4ccc(F)cc4F)s3)cn2CC12CCCO2` (stereo not drawn) [Compound 12] the IC50 [1] was 5 nM and the IC50 [2] was > 8000 nM.
In the case of `CC1(C)C(=O)c2c(O)c(=O)c(-c3nnc(Cc4ccc(F)cc4F)s3)cn2CC12CCCO2` (stereo not drawn) [Compound 13], the IC50 [1] is reported as 5.4 nM and the IC50 [2] is reported as 585 nM.
`CC1n2cc(C(=O)NCc3ccc(F)cc3F)c(=O)c(O)c2C(=O)C(C)(C)C12CCCO2` (stereo not drawn) [Compound 15] showed an IC50 [3] of 2.4 nM and an IC50 [4] of 149 nM.
Compound `CC1COC2(C1)Cn1cc(C(=O)NCc3ccc(F)cc3F)c(=O)c(O)c1C(=O)C2(C)C` (stereo not drawn) [Compound 16] has an IC50 [3] of 3.1 nM and an IC50 [2] of 634 nM.
`CC1COC2(C1)Cn1cc(C(=O)NCc3ccc(F)cc3F)c(=O)c(O)c1C(=O)C2(C)C` (stereo not drawn) [Compound 17] gave an IC50 [1] of 3.1 nM and an IC50 [2] of 307 nM.
With `CC1COC2(C1)Cn1cc(C(=O)NCc3ccc(F)cc3F)c(=O)c(O)c1C(=O)C2(C)C` (stereo not drawn) [Compound 18] the IC50 [1] was 2.7 nM and the IC50 [2] was 855 nM.
For `CC1COC2(C1)Cn1cc(C(=O)NCc3ccc(F)cc3F)c(=O)c(O)c1C(=O)C2(C)C` (stereo not drawn) [Compound 19], the IC50 [1] was 2.6 nM and the IC50 [2] was 453 nM.
